# Source: US20240189495A1, “METHODS OF PREPARING AN EXTRACORPOREAL CIRCUIT FOR ANTICOAGULATION” (Lawell Therapeutics, LLC, priority 2021, published 2024)
# Legend:
# Type in all cases: physicochemical
# [1] = Filter membrane adsorption in in vitro dialysis circuit, HPLC; conditions: for Quantity (% nafamostat free base) remaining after the initiation of priming: 500 mL; for Quantity (mcg nafamostat free base) adsorbed over time (minutes), Avg.: average of 5, 10, 20 min; for Time in which the change in concentration is complete: regardless the solution concentration
# Procedure: A dialysis apparatus was established as described in FIG. 5 using a PS, PES, PAES, or a PAN filter. A series of experiments was conducted using various filter membranes in an in vitro model to determine the filter membrane adsorption characteristics. A solution of nafamostat was circulated through the blood and dialysate sides of the filter at typical CRRT flow rates of 100-300 milliliters per minute. The concentration of nafamostat was measured via HPLC at 0, 5, 10 and 20 minutes. Only one reservoir of nafamostat was used. Therefore, any change in concentration represents adsorption since the molecule cannot escape the system. The following filters were used: Polyethersulfone (PES) from […], part number CAR-505; Polyarylethersulfone (PAES) from Baxter, part number HF1000; Polyacrylonitrile (PAN) from Baxter, part number M100; Polysulfone (PS) from Baxter, part number F50; no filter, tubing only from Baxter, part number M100. Baxter tubing was used for all filter tests.
# [2] = Adsorption of nafamostat to circuit tubing, in vitro dialysis circuit without filter, HPLC; conditions: for Percent of Nafamostat Remaining as a Ratio of the Starting Concentration at Time 0: tubing only, no filter
# Procedure: A dialysis apparatus was established as described in FIG. 5 without using a filter. An experiment was conducted to determine the adsorption characteristics to the tubing. The solution was circulated through the tubing at typical CRRT flow rates of 100-300 milliliters per minute (FIG. 5). The concentration of nafamostat was measured via HPLC at 0, 5, 10 and 20 minutes. Only one reservoir of nafamostat was used. Therefore, any change in concentration represents adsorption since the molecule cannot escape the system. […] Therefore, any change in concentration can be attributed to adsorption onto the filter membrane tested.
# [3] = Saturation of polyacrylonitrile filter by repeated replenishment of nafamostat solution (Example 8)
# Procedure: To determine if a polyacrylonitrile filter can be saturated, and if so, what quantity of nafamostat would be required, an in vitro experiment was conducted wherein 632 milligrams of nafamostat were passed through the filter in the same manner as described in FIG. 5 for 20 minutes. Then the solution was replenished with an additional 632 milligrams (solution B-1), which was circulated for an additional 20 minutes, followed by replenishment with an additional 632 milligrams (solution B-2), which was circulated for an additional 20 minutes and finally replenished with an additional 379 milligrams. The total quantity of 2275 milligrams represents a three-day consumption of nafamostat at the maximum dose of 31.2 mg/h. As one can see from Table 4, nafamostat continues to adsorb to the polyacrylonitrile filter even after the entire quantity of 2275 milligrams has been delivered.
smiles,measurement,setting,value
"N=C(N)c1ccc2cc(OC(=O)c3ccc(N=C(N)N)cc3)ccc2c1 [Nafamostat, nafamostat]",Quantity (% nafamostat free base) remaining after the initiation of priming,"[1]; Example 2, PS F50, 158 mcg/mL, 0 min",100%
same,Quantity (% nafamostat free base) remaining after the initiation of priming,"[1]; Example 2, PS F50, 158 mcg/mL, 5 min",96.7%
same,Quantity (% nafamostat free base) remaining after the initiation of priming,"[1]; Example 2, PS F50, 158 mcg/mL, 10 min",96.8%
same,Quantity (% nafamostat free base) remaining after the initiation of priming,"[1]; Example 2, PS F50, 158 mcg/mL, 20 min",97.2%
same,Quantity (mcg nafamostat free base) adsorbed over time (minutes),"[1]; Example 2, PS F50, prime quantity 79,000 mcg, 5 min","2,620 mcg"
same,Quantity (mcg nafamostat free base) adsorbed over time (minutes),"[1]; Example 2, PS F50, prime quantity 79,000 mcg, 10 min","2,559 mcg"
same,Quantity (mcg nafamostat free base) adsorbed over time (minutes),"[1]; Example 2, PS F50, prime quantity 79,000 mcg, 20 min","2,222 mcg"
same,"Quantity (mcg nafamostat free base) adsorbed over time (minutes), Avg.","[1]; Example 2, PS F50, prime quantity 79,000 mcg","2,467 mcg"
same,Quantity (% nafamostat free base) remaining after the initiation of priming,"[1]; Example 3, PES CAR-505, 158 mcg/mL, 0 min",100%
same,Quantity (% nafamostat free base) remaining after the initiation of priming,"[1]; Example 3, PES CAR-505, 158 mcg/mL, 5 min",95.6%
same,Quantity (% nafamostat free base) remaining after the initiation of priming,"[1]; Example 3, PES CAR-505, 158 mcg/mL, 10 min",95.6%
same,Quantity (% nafamostat free base) remaining after the initiation of priming,"[1]; Example 3, PES CAR-505, 158 mcg/mL, 20 min",95.6%
same,Quantity (mcg nafamostat free base) adsorbed over time (minutes),"[1]; Example 3, PES CAR-505, prime quantity 79,000 mcg, 5 min","3,555 mcg"
same,Quantity (mcg nafamostat free base) adsorbed over time (minutes),"[1]; Example 3, PES CAR-505, prime quantity 79,000 mcg, 10 min","3,555 mcg"
same,Quantity (mcg nafamostat free base) adsorbed over time (minutes),"[1]; Example 3, PES CAR-505, prime quantity 79,000 mcg, 20 min","3,555 mcg"
same,"Quantity (mcg nafamostat free base) adsorbed over time (minutes), Avg.","[1]; Example 3, PES CAR-505, prime quantity 79,000 mcg","3,555 mcg"
same,Quantity (% nafamostat free base) remaining after the initiation of priming,"[1]; Example 4, PAES HF1000, 158 mcg/mL, 0 min",100%
same,Quantity (% nafamostat free base) remaining after the initiation of priming,"[1]; Example 4, PAES HF1000, 158 mcg/mL, 5 min",96.9%
same,Quantity (% nafamostat free base) remaining after the initiation of priming,"[1]; Example 4, PAES HF1000, 158 mcg/mL, 10 min",97.2%
same,Quantity (% nafamostat free base) remaining after the initiation of priming,"[1]; Example 4, PAES HF1000, 158 mcg/mL, 20 min",97.1%
same,Quantity (mcg nafamostat free base) adsorbed over time (minutes),"[1]; Example 4, PAES HF1000, prime quantity 79,000 mcg, 5 min","2,446 mcg"
same,Quantity (mcg nafamostat free base) adsorbed over time (minutes),"[1]; Example 4, PAES HF1000, prime quantity 79,000 mcg, 10 min","2,184 mcg"
same,Quantity (mcg nafamostat free base) adsorbed over time (minutes),"[1]; Example 4, PAES HF1000, prime quantity 79,000 mcg, 20 min","2,261 mcg"
same,"Quantity (mcg nafamostat free base) adsorbed over time (minutes), Avg.","[1]; Example 4, PAES HF1000, prime quantity 79,000 mcg","2,297 mcg"
same,Quantity (% nafamostat free base) remaining after the initiation of priming,"[1]; Example 5, PAN M100, 158 mcg/mL, 0 min",98.7%
same,Quantity (% nafamostat free base) remaining after the initiation of priming,"[1]; Example 5, PAN M100, 158 mcg/mL, 5 min",20.5%
same,Quantity (% nafamostat free base) remaining after the initiation of priming,"[1]; Example 5, PAN M100, 158 mcg/mL, 10 min",4.3%
same,Quantity (% nafamostat free base) remaining after the initiation of priming,"[1]; Example 5, PAN M100, 158 mcg/mL, 20 min",0.3%
same,Quantity (mcg nafamostat free base) adsorbed over time (minutes),"[1]; Example 5, PAN M100, prime quantity 79,000 mcg, 5 min","61,770 mcg"
same,Quantity (mcg nafamostat free base) adsorbed over time (minutes),"[1]; Example 5, PAN M100, prime quantity 79,000 mcg, 10 min","74,594 mcg"
same,Quantity (mcg nafamostat free base) adsorbed over time (minutes),"[1]; Example 5, PAN M100, prime quantity 79,000 mcg, 20 min","77,732 mcg"
same,"Quantity (mcg nafamostat free base) adsorbed over time (minutes), Avg.","[1]; Example 5, PAN M100, prime quantity 79,000 mcg","71,365 mcg"
same,Quantity (% nafamostat free base) remaining after the initiation of priming,"[1]; Example 6, PAN M100, 316 mcg/mL, 0 min",99.5%
same,Quantity (% nafamostat free base) remaining after the initiation of priming,"[1]; Example 6, PAN M100, 316 mcg/mL, 5 min",20.4%
same,Quantity (% nafamostat free base) remaining after the initiation of priming,"[1]; Example 6, PAN M100, 316 mcg/mL, 10 min",4.3%
same,Quantity (% nafamostat free base) remaining after the initiation of priming,"[1]; Example 6, PAN M100, 316 mcg/mL, 20 min",0.4%
same,Quantity (mcg nafamostat free base) adsorbed over time (minutes),"[1]; Example 6, PAN M100, prime quantity 158,000 mcg, 5 min","124,946 mcg"
same,Quantity (mcg nafamostat free base) adsorbed over time (minutes),"[1]; Example 6, PAN M100, prime quantity 158,000 mcg, 10 min","150,288 mcg"
same,Quantity (mcg nafamostat free base) adsorbed over time (minutes),"[1]; Example 6, PAN M100, prime quantity 158,000 mcg, 20 min","156,502 mcg"
same,"Quantity (mcg nafamostat free base) adsorbed over time (minutes), Avg.","[1]; Example 6, PAN M100, prime quantity 158,000 mcg","143,912 mcg"
same,Quantity (% nafamostat free base) remaining after the initiation of priming,"[1]; Example 7, PAN M100, 632 mcg/mL, 0 min",99.1%
same,Quantity (% nafamostat free base) remaining after the initiation of priming,"[1]; Example 7, PAN M100, 632 mcg/mL, 5 min",17.4%
same,Quantity (% nafamostat free base) remaining after the initiation of priming,"[1]; Example 7, PAN M100, 632 mcg/mL, 10 min",2.7%
same,Quantity (% nafamostat free base) remaining after the initiation of priming,"[1]; Example 7, PAN M100, 632 mcg/mL, 20 min",0.04%
same,Quantity (mcg nafamostat free base) adsorbed over time (minutes),"[1]; Example 7, PAN M100, prime quantity 316,000 mcg, 5 min","258,314 mcg"
same,Quantity (mcg nafamostat free base) adsorbed over time (minutes),"[1]; Example 7, PAN M100, prime quantity 316,000 mcg, 10 min","304,629 mcg"
same,Quantity (mcg nafamostat free base) adsorbed over time (minutes),"[1]; Example 7, PAN M100, prime quantity 316,000 mcg, 20 min","313,065 mcg"
same,"Quantity (mcg nafamostat free base) adsorbed over time (minutes), Avg.","[1]; Example 7, PAN M100, prime quantity 316,000 mcg","292,003 mcg"
same,Time in which the change in concentration is complete,[1]; non-PAN filter (PAES),≤ 5 min
same,Time in which the change in concentration is complete,[1]; non-PAN filter (PES),≤ 5 min
same,Time in which the change in concentration is complete,[1]; non-PAN filter (PS),≤ 5 min
same,Change in concentration in the PAN filters,[1]; within the first 5 minutes,80%
same,Change in concentration in the PAN filters,[1]; within the first 10 minutes,95%
same,Change in concentration in the PAN filters,[1]; within the first 15 minutes,99%
same,Change in concentration in the PAN filters,[1]; within the first 20 minutes,99.5%
same,Percent of Nafamostat Remaining as a Ratio of the Starting Concentration at Time 0,[2]; 0 min,100%
same,Percent of Nafamostat Remaining as a Ratio of the Starting Concentration at Time 0,[2]; 5 min,100%
same,Percent of Nafamostat Remaining as a Ratio of the Starting Concentration at Time 0,[2]; 10 min,101%
same,Percent of Nafamostat Remaining as a Ratio of the Starting Concentration at Time 0,[2]; 20 min,100%
same,Adsorption onto the tubing,[2]; tubing used for all tests,does not adsorb substantially
same,Amount of Nafamostat Remaining as a Ratio of the Starting Concentration at Time 0,"[3]; Example 8, Solution A 632 mg, 0 min",99.2%
same,Amount of Nafamostat Remaining as a Ratio of the Starting Concentration at Time 0,"[3]; Example 8, Solution A 632 mg, 5 min",8.5%
same,Amount of Nafamostat Remaining as a Ratio of the Starting Concentration at Time 0,"[3]; Example 8, Solution A 632 mg, 10 min",0.8%
same,Amount of Nafamostat Remaining as a Ratio of the Starting Concentration at Time 0,"[3]; Example 8, Solution A 632 mg, 20 min",0.0%
same,Amount of Nafamostat Remaining as a Ratio of the Starting Concentration at Time 0,"[3]; Example 8, Solution B-1, added 632 mg, 0 min",100.0%
same,Amount of Nafamostat Remaining as a Ratio of the Starting Concentration at Time 0,"[3]; Example 8, Solution B-1, added 632 mg, 5 min",14.6%
same,Amount of Nafamostat Remaining as a Ratio of the Starting Concentration at Time 0,"[3]; Example 8, Solution B-1, added 632 mg, 10 min",6.2%
same,Amount of Nafamostat Remaining as a Ratio of the Starting Concentration at Time 0,"[3]; Example 8, Solution B-1, added 632 mg, 20 min",3.1%
same,Amount of Nafamostat Remaining as a Ratio of the Starting Concentration at Time 0,"[3]; Example 8, Solution B-2, added 632 mg, 0 min",100.0%
same,Amount of Nafamostat Remaining as a Ratio of the Starting Concentration at Time 0,"[3]; Example 8, Solution B-2, added 632 mg, 5 min",20.0%
same,Amount of Nafamostat Remaining as a Ratio of the Starting Concentration at Time 0,"[3]; Example 8, Solution B-2, added 632 mg, 10 min",14.6%
same,Amount of Nafamostat Remaining as a Ratio of the Starting Concentration at Time 0,"[3]; Example 8, Solution B-2, added 632 mg, 20 min",10.8%
same,Amount of Nafamostat Remaining as a Ratio of the Starting Concentration at Time 0,"[3]; Example 8, Solution B-3, added 379 mg, 0 min",100.0%
same,Amount of Nafamostat Remaining as a Ratio of the Starting Concentration at Time 0,"[3]; Example 8, Solution B-3, added 379 mg, 5 min",20.8%
same,Amount of Nafamostat Remaining as a Ratio of the Starting Concentration at Time 0,"[3]; Example 8, Solution B-3, added 379 mg, 10 min",19.2%
same,Amount of Nafamostat Remaining as a Ratio of the Starting Concentration at Time 0,"[3]; Example 8, Solution B-3, added 379 mg, 20 min",17.7%
same,Saturation of the PAN filter with nafamostat,[3]; total quantity of 2275 milligrams delivered,cannot be saturated
